Test results as given in patent US6319916A, “Heterocyclic compounds, their production and use” (Takeda Chemical Industries, Ltd., priority 1992, dated 2001).
Counter-ions that a name gives are not always drawn.

The molecules below were run against T1, Acetylcholinesterase (Rattus norvegicus, UniProt P37136) (assay: Cholinesterase inhibitory activity with (acetyl[^3 H])-acetylcholine). Details: S1 fraction of homogenate of male Wistar rat cerebral cortex; 30 minutes incubation.
T1 construct: S1 fraction of a homogenate of male Wistar rat cerebral cortex as the cholinesterase source; from tissue; host or cells: male Wistar rat cerebral cortex, S1 fraction of homogenate
T1 sequence (P37136 32-614): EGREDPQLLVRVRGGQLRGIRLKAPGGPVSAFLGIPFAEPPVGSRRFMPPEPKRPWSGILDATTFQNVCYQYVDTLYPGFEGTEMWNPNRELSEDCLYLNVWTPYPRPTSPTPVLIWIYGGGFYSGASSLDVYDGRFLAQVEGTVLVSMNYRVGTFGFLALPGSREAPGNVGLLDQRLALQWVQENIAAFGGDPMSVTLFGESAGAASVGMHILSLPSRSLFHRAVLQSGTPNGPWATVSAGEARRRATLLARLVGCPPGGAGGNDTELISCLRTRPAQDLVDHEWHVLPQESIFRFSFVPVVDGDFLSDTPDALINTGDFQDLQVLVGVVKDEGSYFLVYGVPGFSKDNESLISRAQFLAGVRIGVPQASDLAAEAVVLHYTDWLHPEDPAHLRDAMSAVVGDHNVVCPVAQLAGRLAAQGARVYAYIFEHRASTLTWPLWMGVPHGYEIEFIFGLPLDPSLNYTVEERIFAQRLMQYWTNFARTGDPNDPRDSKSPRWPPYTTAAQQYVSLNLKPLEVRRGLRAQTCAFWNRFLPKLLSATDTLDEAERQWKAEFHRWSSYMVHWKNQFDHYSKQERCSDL
Format: biochemical
Procedure: The cholinesterase inhibitory activity of the compound of this invention was assayed with (acetyl[^3 H])-acetylcholine. More specifically, (acetyl[^3 H])-acetylcholine as the substrate and the compound of this invention as the test sample were added to the S1 fraction of a homogenate of male Wistar rat cerebral cortex as the cholinesterase source. The mixture was incubated for 30 minutes, after completion of the reaction, to the reaction mixture was added a toluene-based scintillator, and the mixture was shaken. The reaction product [^3 H]-acetic acid was transferred to the toluene layer, which was subjected to determination of cholinesterase inhibitory activity by counting with a liquid scintillation counter.
The cholinesterase inhibitory activity of the test compound was expressed in 50% inhibitory concentration (IC50).
In the case of `O=C(CCC1CCN(Cc2ccccc2)CC1)c1ccc2c(c1)CNCCO2` [3-A, 3-[1-(Phenylmethyl)piperidin-4-yl]-1-(2,3,4,5-tetrahydro-1,4-benzoxazepin-7-yl)-1-propanone dihydrochloride], the IC50 is reported as 17.5 nM.
`Cl.Cl.O=C(CCC1CCN(Cc2ccccc2)CC1)c1ccc2c(c1)CN(Cc1ccccc1)CCO2` [3-B, 1-[4-(Phenylmethyl)-2,3,4,5-tetrahydro-1,4-benzoxazepin-7-yl]-3-[1-(phenylmethyl)piperidin-4-yl]-1-propanone dihydrochloride] was tested, and the IC50 was 119 nM.
`O=C(CCC1CCN(Cc2ccccc2)CC1)c1ccc2c(c1)CN(Cc1ccc([N+](=O)[O-])cc1)CCO2` [8-5] showed an IC50 of 12.7 nM.
In the case of `CC(=O)N1CCOc2ccc(C(=O)CCC3CCN(Cc4ccccc4)CC3)cc2C1` [Example 4, 1-(4-Acetyl-2,3,4,5-tetrahydro-1,4-benzoxazepin-7-yl)-3-[1-(phenylmethyl)piperidin-4-yl]-1-propanone hydrochloride], the IC50 is reported as 54.5 nM.
Molecule `COc1ccc(CN2CCOc3ccc(C(=O)CCC4CCN(Cc5ccccc5)CC4)cc3C2)cc1` [Example 5, 1-[4-(4-Methoxyphenylmethyl)-2,3,4,5-tetrahydro-1,4-benzoxazepin-7-yl]-3-[1-(phenylmethyl)piperidin-4-yl]-1-propanone dihydrochloride] has an IC50 of 69.6 nM.
`O=CN1CCOc2ccc(C(=O)CCN3CCN(Cc4ccccc4)CC3)cc2C1` [Example 6, 1-(4-Formyl-2,3,4,5-tetrahydro-1,4-benzoxazepin-7-yl)-3-[4-(phenylmethyl)piperazin-1-yl]-1-propanone dihydrochloride] gave an IC50 of 107 nM.

The molecules below were run on mice (assay: Antidepressant activity, tail suspension test). Details: 30 mg/kg, oral; thirty minutes later suspended on tails for 10 minutes; **P < 0.01; saline 49.45 ± 2.47.
Format: in vivo, ICR male mice
Procedure: The antidepressant activity of the compound of the present invention was assayed by means of tail suspension test using ICR male mice (five weeks of age, weighing 23.5 to 37.6 g) as test animals. […]. Thirty minutes later, the mice were suspended on tails for 10 minutes and immobility thereof (% control) was measured. The antidepressant activity of the test compound was shown as in percent control of immobility. As a comparative compound, desipramine, which is known to have an antidepressant activity, was employed and the immobility thereof was measured in the same manner as described above.
Molecule `Cl.Cl.O=C(CCC1CCN(Cc2ccccc2)CC1)c1ccc2c(c1)CN(Cc1ccccc1)CCO2` [3-B, 1-[4-(Phenylmethyl)-2,3,4,5-tetrahydro-1,4-benzoxazepin-7-yl]-3-[1-(phenylmethyl)piperidin-4-yl]-1-propanone dihydrochloride] has an Immobility of 34.37 ± 4.49%.
For `CNCCCN1c2ccccc2CCc2ccccc21` [desipramine, reference compound], the Immobility was 37.25 ± 3.32%.
